The values below come from patent US6303596A, “Use of taurolidine for treatment of leukemias” (priority 2000, dated 2001).

Holding throughout (assay type): cell-based, human
In one data set the test system is MM6 cells. Put plainly: cell morphology / size (microscopy, flow cytometry FSC and SSC), MM6. The method, then: FIG. 12A, FIG. 12B, FIG. 12C, and FIG. 12D are flow cytometric analyses depicting changes in cell morphology following taurolidine treatment. MM6 and PBMC were treated for three hours with taurolidine, and then treated and untreated control cells were processed for flow cytometry. Monocytes in PBMC samples were identified by staining with FITC-conjugated anti-CD14, and lymphocytes by FITC-conjugated anti-CD3 and PE-conjugated anti-CD19. FIG. 12A represents untreated MM6 cells; FIG. 12B represents MM6 cells treated with 50 μg/ml taurolidine; FIG. 12C represents untreated PBMC; and FIG. 12D represents PBMC treated with 75 μg/ml taurolidine. M=monocytes; L=lymphocytes.
A Becton-Dickinson FACSCalibur instrument was used for flow cytometric analysis of cells. Assessment of cell diameter (forward scatter; FCS) and granularity (side scatter; SSC).was carried out on unfixed cells. Discrimination between lymphocytes and monocytes was made possible by their characteristic differences in FSC and SSC, and confirmed by staining monocytes with FITC-labeled anti-CD14 antibodies and lymphocytes with a combination of FITC-conjugated anti-CD3 and PE-conjugated anti-CD19. After incubation with taurolidine (with or without concomitant LPS treatment), cells were rinsed twice in phosphate-buffered saline containing 0.1% bovine serum albumin (PBSA) and 1×10^6 cells were resuspended in 0.1 ml PBSA. […]
(In general: Flow cytometry measures light scatter and fluorescence of single cells or particles in a stream.)

The next data set relates to Monocytes. Put plainly: TUNEL / propidium iodide flow cytometry, monocytes in PBMC, culture medium. The method, then:
FIG. 14A and FIG. 14B are terminal deoxytransferase-mediated deoxyuridine-triphosphate-biotin nick end labeling assay (TUNEL) analyses of control cells and taurolidine-treated PBMC, respectively. Cells were incubated with 100 μg/ml taurolidine for six hours and processed for TUNEL analysis as given below. Parallel samples were stained with FITC-conjugated anti-CD14 and propidium iodide (PI) as described below. Ten thousand events were recorded per sample. TUNEL signal (x-axis) is a measure of DNA fragmentation, which FSC (y-axis) is related to cell size. TUNEL-negative lymphocytes are bounded by the rectangle R1, while TUNEL-negative monocytes (CD14 positive cells) are bounded by the rectangle R2. The vertical line indicates demarcation between TUNEL-negative and TUNEL-positive cells. There were minimal numbers of PI-positive cells in the six hour samples (see Table IV).
In the second method, DNA fragmentation was detected via TUNEL assay according to the manufacturer's instructions. With this methodology, 2×10^6 cells were fixed with 2% paraformaldehyde, permeabilized with 0.1% Triton X-100/0.1% citrate, incubated at 37° C. with terminal deoxynucleotidyl transferase and FITC-dUTP, rinsed and analyzed by flow cytometry. Enhanced FITC signal indicates apoptosis-specific DNA fragmentation. Gavriali, et al, "Identification of programmed cell death in situ via specific labeling of nuclear DNA fragmentation," J Cell Biol 119:493 (1992). Parallel aliquots of unfixed cells were treated with PI and FITC-conjugated anti-CD14 and analyzed by flow cytometry, in order to identify cells with permeable cell membranes (since PI binds to DNA but is excluded from cells with intact plasma membranes) and also to determine the cell-specificity of the apoptotic signal.
A Becton-Dickinson FACSCalibur instrument was used for flow cytometric analysis of cells. Assessment of cell diameter (forward scatter; FCS) and granularity (side scatter; SSC).was carried out on unfixed cells. Discrimination between lymphocytes and monocytes was made possible by their characteristic differences in FSC and SSC, and confirmed by staining monocytes with FITC-labeled anti-CD14 antibodies and lymphocytes with a combination of FITC-conjugated anti-CD3 and PE-conjugated anti-CD19. After incubation with taurolidine (with or without concomitant LPS treatment), cells were rinsed twice in phosphate-buffered saline containing 0.1% bovine serum albumin (PBSA) and 1×10^6 cells were resuspended in 0.1 ml PBSA. After 5 μl FITC-conjugated anti-CD14 was added, cells were incubated in the dark on ice for 15 minutes and then centrifuged at 250×g. Cells were resuspended in 500 μl PBSA containing 5 μg/ml PI and subjected to flow cytometry.
Consequently, TUNEL analysis was performed on PBMC at 3, 6, or 24 hours after treatment with 25 to 100 μg/ml taurolidine. Aliquots of harvested cells were also labeled with FITC-conjugated anti-CD14 antibodies and PI, which allowed identification of monocytes (CD14-positive cells) and cells with damaged cell membranes (PI-positive cells). […] Thus, nearly 75% of the monocytes were TUNEL-positive following treatment with 100 μg/ml taurolidine for six hours. Confirmation that the TUNEL-positive cells were monocytes was obtained by staining with FITC-conjugated anti-CD14.
^a Analysis by flow cytometry after staining cells with FITC-conjugated
anti-CD14 and PI, and processing for TUNEL. Data are mean ± SD of two
^b Percent of cells present in the TUNEL-negative region in control

Another data set has as its system tissue factor (TF). The data set is described as follows: LPS-induced tissue factor (TF) expression in MM6 cells, ELISA. To be noted: for inhibition of LPS-induced TF expression: 4 h. The method, then:
FIG. 2A represents MM6 cells; FIG. 2B represents PBMC. The cells were induced with LPS (hatched bars: 100 ng/ml LPS in RPMI supplemented with 10% BCS (RPMI+10% BCS); solid bars: 10 ng/ml in AIM-V+0.01% BCS) in the presence of varying concentrations of taurolidine,or with a dilution of the vehicle equivalent to that given to cells receiving 100 μg/ml taurolidine. After four hours, cells were collected and lysates were prepared for TF ELISA. Data are expressed as percent of TF antigen measured in cells treated with LPS alone (no taurolidine or vehicle). Experiments were performed with duplicate samples and were repeated at least three times. Values shown are mean±SEM of all experiments.
All cells were cultured in a 5% CO2 atmosphere at 37° C. MM6 cells were grown in RPMI supplemented with 10% BCS, 2 mM L-glutamine, and 50 μg/ml gentamicin (RPMI+10% BCS). In some experiments, MM6 cells were rinsed once with HBSS without Ca^++ or Mg^++ and once with AIM-V before finally being resuspended in AIM-V supplemented with 0.01% BCS (AIM-V+0.01% BCS). […] AIM-V was supplemented with a low amount of BCS (0.01%) in order to provide a source of LPS-binding protein, which enhances the response of monocytic cells to LPS. […] HL-60, REH, and Jurkat were cultured in RPMI supplemented with 10% heat inactivated fetal bovine serum (FBS), 2 mM L-glutamine, and 50 μg/ml gentamicin. ECV304 were cultured in M199 supplemented with 10% FBS, mM L-glutamine, and 50 μg/ml gentamicin. GM5387 was cultured in MEM supplemented with 20% FBS, 2 mM L-glutamine, and 50 μg/ml gentamicin.
For induction of TF or TNFα expression, MM6 cells or PBMC were cultured either in RPMI supplemented with 10% BCS or in AIM-V+0.01% BCS, and stimulated by adding LPS to final concentrations of 10 to 100 ng/ml. […] Except as noted, taurolidine and LPS were added to the cell cultures simultaneously. For TF determination, cells and culture media together were treated by adding Triton X-100 (1% final) and EDTA (7 mmol/L final), and the resulting lysates assayed by ELISA. […] For TNFα determination, cells were removed by centrifugation for 5 min at 250×g, and the supernatants were assayed by ELISA.

Turning to `O=S1(=O)CCN(CN2CCS(=O)(=O)NC2)CN1` [taurolidine, 4,4'-methylenebis(perhydro-1,2,4-thiadiazin 1,1-dioxide)], the “cell size by microscopy” value in the data set with MM6 cells (MM6, 100 μg/ml taurolidine, 4 h) is reported as “smaller than control cells”. The “decrease in FSC” value with MM6 cells (MM6, taurolidine 3 h) was “approximately 30%”. Also, the “TUNEL-positive (apoptotic) monocytes” value in the data set on Monocytes (100 μg/ml taurolidine, 6 h, culture medium, 360 min) was “approximately 75%”. In addition, in the data set with Monocytes (25 and 50 μg/ml taurolidine, versus 100 μg/ml), the “induction of apoptosis at lower doses” value is reported as “lower levels of induction of apoptosis”. In the data set with Monocytes (Homo sapiens, Monocyte, 100 μg/ml taurolidine, 6 h, culture medium, read-out: TUNEL-positive (apoptotic) monocytes), the cytotoxicity at 100 µg/mL was about 75%. In the data set on Monocytes (Homo sapiens, Monocyte, monocytes, 25 μg/ml, 6 h, percent of control, read-out: % TUNEL-Negative), the viability at 25 µg/mL is 88.3 ± 2.7%. The viability at 50 µg/mL in the data set on Monocytes (Homo sapiens, Monocyte, monocytes, 50 μg/ml, 6 h, percent of control, read-out: % TUNEL-Negative) came to 67.8 ± 18%. Besides, in the data set on Monocytes (Homo sapiens, Monocyte, monocytes, 100 μg/ml, 6 h, percent of control, read-out: % TUNEL-Negative), the viability at 100 µg/mL turned out to be 25.1 ± 11.8%. In addition, the “onset of apoptosis after treatment” value with Monocytes (monocytes) is on record as “detectable within four to six hours”. Moreover, the “inhibition of LPS-induced TF expression” value in the data set on tissue factor (TF) (MM6, taurolidine 50 μg/ml or higher) is listed as “completely blocked”; with tissue factor (TF) (MM6, taurolidine 10 or 25 μg/ml) it was “little or no effect”. Besides, in the data set on tissue factor (TF) (PBMC, MM6 and granulocytes, LPS-induced), the “induction of TF expression (summary)” value is listed as “blocked”.
